Measurements published in patent EP3643303A1, “COMPOUNDS FOR USE IN THE TREATMENT OR PREVENTION OF FIBROTIC DISEASES; PHARMACEUTICAL, COSMETIC COMPOSITIONS AND USES THEREOF” (InnovativeHealth Group SL, priority 2018, dated 2020).

How the values were obtained:
[1] = test system: Il13, IL1β, IL6, CCL2, TGFβ and IL4; assay: Real-time quantitative PCR of inflammatory and fibrotic cytokines in skin of BLM mice; assay type: in vivo; details: mRNA, 2^-ΔΔCt, Figure 11
Method: Total RNA was isolated from mice frozen skin tissue using QIAzol lysis reagent (Qiagen, Hilden, Germany) and purified with RNeasy mini kit (Qiagen). Total RNA (1 µg) was retrotranscribed using the iScript™ cDNA Synthesis Kit (Bio-Rad), and the cDNA generated was analysed by real-time PCR using the iQTM SYBR Green Supermix (Bio-Rad) using a CFX96 Real-Time PCR Detection System (Bio-Rad). […] The GAPDH housekeeping gene was used to standardize the mRNA expression levels in every sample. Expression levels were calculated using the 2^-ΔΔCt method. Gene expression were normalized to GADPH mRNA levels in each sample and expressed using the 2^-ΔΔCt method. Table 1. List of mouse primer sequences used in quantitative Polymerase Chain Reaction

TRPV-1 = TRPV-1 (Homo sapiens, UniProt Q8NER1); assay: Capsaicin-induced intracellular calcium mobilization (Fura-2) in HEK-293T-TRPV1 cells; assay type: cell-based; set-up: expressed in transfected cells; host or cells: HEK-293T; details: capsaicin 1 µM; Fura-2 AM; Figure 2A
Method: Next, the effect of (+)CBD and (-)CBD on TRPV-1 activity was investigated. TRPV-1 is an ionotropic receptor that upon activation by a specific agonist such as capsaicin mobilize intracellular calcium in TRPV-1 expressing cells. Moreover, TRPV-1-induced calcium exerts cytotoxicity in non-neuronal cells overexpressing this receptor. To explore the effect of (+)CBD on calcium mobilization HEK-293T-TRPV1 cells were cultured in 96-well plates (10^3 cells/well) and loaded with Fura 2 acetyoxymethyl ester (Fura-2 AM; 8 µM) (Molecular Probes, Carlsbad, CA) in Dulbecco's modified Eagle's medium (containing 110 mg/l pyruvate) supplemented with 10% FBS and incubated (40 min, 37°C, 5% CO2). The cells were preincubated with (+)CBD and after 15 sec treated with capsaicin (1µM). Changes in intracellular free calcium concentration (intracellular [Ca^2+]free) were measured by digital microscopy equipped with ratiometric recording of single cells. (BD Pathway 855 Bioimager). The field of cells was monitored by sequential dual excitation, 352 and 380 nm, and the analysis of the image ratios used methods described previously to calculate changes in intracellular [Ca^2+]free. The ratio images were acquired every 6 s. At the end of experiments, the cells were exposed to ionomycin (30 s, 1 µM) to obtain a maximal response.

Chain of TRPV-1 (Q8NER1 whole entry): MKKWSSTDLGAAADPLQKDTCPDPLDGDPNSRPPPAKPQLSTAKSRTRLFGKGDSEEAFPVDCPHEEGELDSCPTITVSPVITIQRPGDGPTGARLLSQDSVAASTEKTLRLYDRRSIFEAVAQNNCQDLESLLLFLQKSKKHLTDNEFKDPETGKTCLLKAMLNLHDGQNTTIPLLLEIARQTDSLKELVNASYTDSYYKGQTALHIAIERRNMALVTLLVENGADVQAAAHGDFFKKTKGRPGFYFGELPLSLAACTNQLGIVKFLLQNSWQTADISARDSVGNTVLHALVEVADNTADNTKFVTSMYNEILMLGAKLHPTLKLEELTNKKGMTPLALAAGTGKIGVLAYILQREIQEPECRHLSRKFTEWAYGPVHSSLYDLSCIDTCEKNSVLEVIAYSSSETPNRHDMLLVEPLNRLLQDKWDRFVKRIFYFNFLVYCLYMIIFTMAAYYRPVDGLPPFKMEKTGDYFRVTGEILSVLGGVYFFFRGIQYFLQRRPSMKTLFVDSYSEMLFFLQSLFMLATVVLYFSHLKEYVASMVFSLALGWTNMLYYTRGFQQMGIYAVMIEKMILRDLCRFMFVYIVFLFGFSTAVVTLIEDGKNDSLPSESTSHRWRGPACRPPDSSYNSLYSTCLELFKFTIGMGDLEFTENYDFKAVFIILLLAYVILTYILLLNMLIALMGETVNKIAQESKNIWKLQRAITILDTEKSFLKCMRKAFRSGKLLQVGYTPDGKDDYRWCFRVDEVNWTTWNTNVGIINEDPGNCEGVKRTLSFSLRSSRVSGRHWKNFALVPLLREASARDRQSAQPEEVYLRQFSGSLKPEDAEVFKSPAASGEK

C=C(C)[C@@H]1CCC(C)=C[C@H]1c1c(O)cc(CCCCC)cc1O [(-)CBD, 2-[(1R,6R)-3-methyl-6-prop-1-en-2-ylcyclohex-2-en-1-yl]-5-pentylbenzene-1,3-diol]
expression levels of CCL2 in the skin [1]: significantly reduced
expression levels of IL1β in the skin [1]: significantly reduced
expression levels of IL4 in the skin [1]: significantly reduced
expression levels of IL6 in the skin [1]: significantly reduced
expression levels of Il13 in the skin [1]: significantly reduced
expression levels of TGFβ in the skin [1]: significantly reduced
capsaicin-induced calcium mobilization (TRPV-1): prevent capsaicin-induced calcium mobilization
